Reference: paper PMC9791066, “Investigations into the antibacterial effects and potential mechanism of gambogic acid and neogambogic acid” (Frontiers in Microbiology, 2022)

What was measured:
EfaUPPS (I43A) [1] = molecular target: T1, EfaUPPS (I43A) (Enterococcus faecalis, UniProt Q831K9, I49A); assay: Microscale thermophoresis binding assay, EfaUPPS I43A
T1 construct: His tag; made in house; host or cells: E. coli BL21(DE3)
Protocol: To characterize the binding affinity between EfaUPPS and GA or NGA, the MST binding assay was performed as previously described ([Lin et al., 2020]). In brief, His-tagged EfaUPPS and site-directed mutated EfaUPPS were labeled with the NT- 647-NHS dye using the Monolith NTTM Protein Labeling Kit RED-NHS (NanoTemper Technologies). Two-fold serially diluted GA or NGA was mixed with 10 nM of labeled EfaUPPS or its derivatives in 10 μl of binding buffer (137 mM NaCl, 2.7 mM KCl, 10 mM Na2HPO4, 1.8 mM KH2PO4, and 0.05% Tween-20, pH 7.8), incubated for 15 min, at room temperature. And then, loaded the mixtures into NT.115 premium coated capillaries (NanoTemper Technologies). MST trace signals were collected from the IR laser on to off for about 20 s, under the 5% LED power and high MST power mode. The change of molecular thermophoresis was monitored by standardized fluorescence value Fnorm, and the binding curve was plotted according to the values of Fnorm. The formed complex affinity was analyzed by MO Affinity Analysis software version 2.3. Apparent dissociation constants (Kd) were calculated using nonlinear fitting assuming one specific binding site with the GraphPad Prism 7 software with the following formula: Y = B^∗Max X/KD + X.
(^∗ where BMax is the maximum theoretical specific binding; here BMax = 1).

E. faecalis infection = assay: E. faecalis infected mouse model; assay type: in vivo, C57BL/6 J mice; conditions: oral dose (40 μM), 19 days
Protocol: All animal studies had been reviewed and approved by the Animal Ethical and Welfare Committee of Nanjing University of Chinese Medicine. 8-week-old male C57BL/6 J mice were housed in groups of four mice per cage in a 12/12-h day light cycle with free access to food and water under conditions of controlled humidity (50 ± 5%) and temperature (22 ± 2°C). Mice were adaptively raised for a week before experiments. To explore the effects of GA and NGA on E. faecalis, the mice were randomly divided into four groups including control, E. faecalis, E. faecalis + GA and E. faecalis + NGA. Mice received an oral dose (40 μM) of GA or NGA from 30 min after E. faecalis (1 × 10^10 CFU) treatment for 19 days to sacrifice. The body weight of the mice was monitored daily. Afterwards mice spleens were collected and spleen weight was measured upon being sacrificed.
Spleen tissue sections of mice were fixed in 4% paraformaldehyde, dehydrated in alcohol, embedded in paraffin and then sliced into thin 5 μm sections. The tissues were then stained with hematoxylin & eosin (H&E). The tissue images were observed under an inverted microscope (Vectra 3.0, PerkinElmer, United States).
Retro-orbital blood was collected from the mice in asepsis tubes before dissection. The blood was centrifuged at 3500 g for 20 min to extract serum, which was stored at −20°C awaiting subsequent analyses. TNF-α-levels in serum was measured by ELISA according to the instructions of the manufacturer (eBioscience, United States).
Total RNA was extracted from the spleen of mice, and then the cDNA was synthesized with HiScript® II Q RT SuperMix for qPCR (Vazyme, China). qPCR was performed using the LightCycler®96 (Roche, Swiss). The qPCR primers of TNF-α (Forward: 5’-[…]-3′ and Reverse: 5’-[…]-3′) were designed and synthesized by GENERAY Biotechnology (Shanghai, China). GAPDH was used as the reference gene.

EfaUPPS (I43A) [2] = molecular target: T1, EfaUPPS (I43A); assay: UPPS inhibition assay, EfaUPPS I43A mutant; assay type: biochemical
Protocol: The EfaUPPS site-directed mutagenesis was generated using QuikChange site-directed mutagenesis kit (Agilent) according to the manufacturer’s instructions. The purification of site-directed mutation was using a similar strategy as described above.
The UPPS inhibition assay was carried out by measuring the fluorescence of the reaction mixture in a black 96-well microtiter plate (Corning, United States). […] After the indicated incubation period, the reaction was terminated by the addition of 10 μl of 0.5 M EDTA solution. Transferred 50 μl of the reaction mixture into a new 96-well microtiter plate, and quenched with an equal volume of Master Reaction Mix (Pyrophosphate Assay Kit, Sigma-Aldrich, USA) for 30 min. The UPPS inhibitory activity was performed by calculating the fluorescence percentage through determining the fluorescence absorbance of reaction mixture at 316 and 456 nm. Data of UPPS inhibitory activities were plotted versus compound concentrations on a semi-log scale using GraphPad Prism7. All the results were the means of at least three biological replicates.

T1 sequence (Q831K9 whole entry I49A): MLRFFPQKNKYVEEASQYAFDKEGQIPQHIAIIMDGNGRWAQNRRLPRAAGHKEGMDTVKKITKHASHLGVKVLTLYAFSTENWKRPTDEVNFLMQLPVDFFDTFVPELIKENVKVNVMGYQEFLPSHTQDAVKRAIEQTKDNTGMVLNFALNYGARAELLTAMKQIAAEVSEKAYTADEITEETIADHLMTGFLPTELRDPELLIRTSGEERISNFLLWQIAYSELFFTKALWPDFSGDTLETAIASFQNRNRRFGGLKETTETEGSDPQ

In the case of `CC(C)=CCC[C@]1(C)C=Cc2c(O)c3c(c(CC=C(C)C)c2O1)O[C@]12C(=C[C@@H]4C[C@H]1C(C)(C)O[C@@]2(C/C=C(/C)C(=O)O)C4=O)C3=O` [GA, gambogic acid], the Kd (EfaUPPS (I43A) [1]) is reported as over 50000 µM, the “body weight of E. faecalis infection mice” value (E. faecalis infection) is reported as “no observable effect” and the “spleen inflammation (H&E spleen slides)” value (E. faecalis infection) is reported as “reduced signs of inflammation”. For the same compound, the “splenomegaly (spleen weight)” value (E. faecalis infection) was “significantly relieved splenomegaly”, the IC50 (EfaUPPS (I43A) [2]) was about 30 µM and the “effect of mutation on inhibitory effect of compound on EfaUPPS enzyme activity” value (EfaUPPS (I43A) [2]; I43A mutant compared with wild-type) was “significantly decreased”. For the same compound, the “IC50 fold higher than that of the wild-type” value (EfaUPPS (I43A) [2]; I43A mutant vs wild-type (~3 μM)) was “about 10 fold”.

`CC(C)=CCC[C@]1(C)CC(O)c2c(O)c3c(c(CC=C(C)C)c2O1)O[C@]12C(=C[C@@H]4C[C@H]1C(C)(C)O[C@@]2(C/C=C(/C)C(=O)O)C4=O)C3=O` (stereo partly drawn) [NGA, neogambogic acid] was tested, and the “TNF-α mRNA in spleen (qPCR)” value (E. faecalis infection) was “significant downregulation”, the “body weight of E. faecalis infection mice” value (E. faecalis infection) was “no observable effect” and the “spleen inflammation (H&E spleen slides)” value (E. faecalis infection) was “reduced signs of inflammation”. For the same compound, the “splenomegaly (spleen weight)” value (E. faecalis infection) was “significantly relieved splenomegaly” and the “TNF-α-levels in serum (ELISA)” value (E. faecalis infection; vs E. faecalis group) was “significantly reduced”.
